Measured values published in patent publication US20070026080A1, “Manufacturing process for tigecycline” (Wyeth, priority 2005, published 2007).

Assay: Strength and degradation profile of tigecycline 20 mg/mL bulk solutions by reversed phase HPLC (effect of temperature, time, pH, dissolved oxygen; Runs A to O)
Format: physicochemical
Settings: 20 mg/mL
Experimental: The contents of the sample vials are dissolved in diluent. The sample solution is diluted, if necessary, and chromatographed on a reversed phase column using gradient elution. Impurities are determined by comparing the impurity peak areas in the sample preparation chromatogram to the average area of tigecycline peaks in the standard preparation chromatograms obtained concomitantly.
Chromatographic Column—Length about 15 cm, inside diameter about 4.6 mm, packed with Inertsil ODS2, 5 μm size particles or equivalent.
Detector—Ultraviolet spectrophotometric detector capable of operating at 248 nm with a sensitivity of about 0.5 absorbance units full scale.
The results of additional studies to investigate the effect of processing parameters such as temperature, time, and dissolved oxygen content on the purity profile of tigecycline solutions using the following materials, methods and procedures are presented in Tables A to O.
The experiments were run in plastic glove bags under normal laboratory light conditions. Plastic glove boxes will be used to control the headspace of the beakers. The batch size was 200 mL. • 1. Prepare the glove bag with a mixture of nitrogen and air to achieve an oxygen level in the solution as per the design. • 2. Place the jacketed beaker on the magnetic stirrer. Connect it to the cooler. Set the cooler to the desired set point. • 3. Add 200 mL of SWFI in to the beaker. Allow equilibrating. Measure the temperature and oxygen content. When it reaches the desired condition, add accurately weighed API and mix until dissolved. If necessary use spatula to aid dissolution. For pH adjustments, use 4 mL of either 0.1N NaOH or 0.1N HCl and 196 mL of WFI for manufacture. • 4. After complete dissolution, Transfer about 5.5 mL of Solution in vials and stopper them. These vials will be stoppered at the appropriate headspace conditions. Place the vials in appropriate temperature conditions. • 5. Sample the vials at 1, 4, 8, 10, 12 and 24 hours. Send the samples for analysis. Freeze the 10, 12 and 24 samples at −20° C. for analysis the following day. • 6. Measure pH and record color of the solution at each time point. Results
The 1-hour samples were taken directly from the beakers. Samples for later time points were collected in stoppered vials processed in the atmosphere of the bag in order to simulate the headspace conditions then placed in water baths or refrigerator to maintain there respective temperature conditions. This was done to maintain safety in the lab. Disposable plastic glove bags require constant flow of a mixture of nitrogen and air to maintain headspace oxygen level that will result in the desired dissolved oxygen (DO) content in the sample. The pH of samples was measured at each sample points.
Strength and degradation profile was analyzed by HPLC as described above. […] Degradation was slightly higher at higher temperature condition.

[1] = Run #I, 5° C., pH 7.9, Oxygen 1.0 mg/L, hours 1,4,8,10,12,24 at r6-r11, 24 h
[2] = Run #I, 5° C., pH 7.9, Oxygen 1.0 mg/L, hours 1,4,8,10,12,24 at r17-r22
[3] = Run #I, 5° C., pH 7.9, Oxygen 1.0 mg/L, hours 1,4,8,10,12,24 at r17-r22, 1 h
[4] = Run #I, 5° C., pH 7.9, Oxygen 1.0 mg/L, hours 1,4,8,10,12,24 at r17-r22, 4 h
[5] = Run #I, 5° C., pH 7.9, Oxygen 1.0 mg/L, hours 1,4,8,10,12,24 at r17-r22, 8 h
[6] = Run #I, 5° C., pH 7.9, Oxygen 1.0 mg/L, hours 1,4,8,10,12,24 at r17-r22, 10 h
[7] = Run #I, 5° C., pH 7.9, Oxygen 1.0 mg/L, hours 1,4,8,10,12,24 at r17-r22, 24 h
[8] = Run #J, 8° C., Oxygen = 1.0 mg/mL, hours 1,4,8,12,24 at r6-r10, 1 hours
[9] = Run #J, 8° C., Oxygen = 1.0 mg/mL, hours 1,4,8,12,24 at r6-r10, 4 hours
[10] = Run #J, 8° C., Oxygen = 1.0 mg/mL, hours 1,4,8,12,24 at r6-r10, 8 hours
[11] = Run #J, 8° C., Oxygen = 1.0 mg/mL, hours 1,4,8,12,24 at r6-r10, 12 hours
[12] = Run #J, 8° C., Oxygen = 1.0 mg/mL, hours 1,4,8,12,24 at r6-r10, 24 hours
[13] = Run #J, 8° C., hours 1,4,8,12,24 at r6-r10, 1 hours
[14] = Run #J, 8° C., hours 1,4,8,12,24 at r6-r10, 4 hours
[15] = Run #J, 8° C., hours 1,4,8,12,24 at r6-r10, 8 hours
[16] = Run #J, 8° C., hours 1,4,8,12,24 at r6-r10, 12 hours
[17] = Run #J, 8° C., hours 1,4,8,12,24 at r6-r10, 24 hours
[18] = Run #K, 2° C., pH 8.2, Oxygen 0.1 mg/L, hours 1,4,8,10,12,24 at r6-r11
[19] = Run #K, 2° C., pH 8.2, Oxygen 0.1 mg/L, hours 1,4,8,10,12,24 at r6-r11, after 1 hours
[20] = Run #K, 2° C., pH 8.2, Oxygen 0.1 mg/L, hours 1,4,8,10,12,24 at r6-r11, after 4 hours
[21] = Run #K, 2° C., pH 8.2, Oxygen 0.1 mg/L, hours 1,4,8,10,12,24 at r6-r11, after 8 hours
[22] = Run #K, 2° C., pH 8.2, Oxygen 0.1 mg/L, hours 1,4,8,10,12,24 at r6-r11, after 10 hours
[23] = Run #K, 2° C., pH 8.2, Oxygen 0.1 mg/L, hours 1,4,8,10,12,24 at r6-r11, after 12 hours

CN(C)c1cc(NC(=O)CNC(C)(C)C)c(O)c2c1C[C@H]1C[C@H]3[C@H](N(C)C)C(O)=C(C(N)=O)C(=O)[C@@]3(O)C(O)=C1C2=O [Tigecycline]
Strength (Run #I, 5° C., pH 7.9, Oxygen 1.0 mg/L, hours 1,4,8,10,12,24 at r6-r11, 12 h): 19.151 mg/mL | RRT 0.58 [1]: 0.10% | RRT 0.74 Epimer [1]: 0.23% | Strength [1]: 19.242 mg/mL | RRT 0.78 MW = 557 [2]: BRL (BRL means below reporting limit (meaning less than 0.05% of tigecycline peak)) | RRT 1.12 [2]: BRL (BRL means below reporting limit (meaning less than 0.05% of tigecycline peak)) | RRT 1.64 Mino [3]: 0.13% | RRT 1.85 MW = 597 [3]: 0.06% | Total [3]: 0.54% | RRT 1.64 Mino [4]: 0.10% | RRT 1.85 MW = 597 [4]: 0.09% | RRT 1.64 Mino [5]: 0.09% | RRT 1.85 MW = 597 [5]: 0.08% | Total [5]: 0.53% | RRT 1.64 Mino [6]: 0.08% | RRT 1.85 MW = 597 [6]: 0.10% | Total [6]: 0.98% | Total (Run #I, 5° C., pH 7.9, Oxygen 1.0 mg/L, hours 1,4,8,10,12,24 at r17-r22, 12 h): 0.71% | RRT 1.64 Mino [7]: 0.11% | Total [7]: 0.96% | RRT 1.67 MW = 556 [8]: 0.09% | Strength [8]: 19.515 mg/mL | RRT 1.67 MW = 556 [9]: 0.17% | Strength [9]: 19.469 mg/mL | RRT 1.67 MW = 556 [10]: 0.15% | Strength [10]: 19.323 mg/mL | RRT 1.67 MW = 556 [11]: 0.19% | Strength [11]: 19.140 mg/mL | RRT 1.67 MW = 556 [12]: 0.21% | Strength [12]: 19.152 mg/mL | RRT 0.58 [13]: 0.06% | RRT 0.74 Epimer [13]: 0.20% | RRT 1.45 [13]: 0.08% | RRT 1.85 MW = 597 [13]: 0.09% | Total [13]: 0.62% | RRT 0.74 Epimer [14]: 0.22% | RRT 1.45 [14]: 0.06% | RRT 1.64 Mino [14]: 0.09% | RRT 1.85 MW = 597 [14]: 0.08% | Total [14]: 0.90% | RRT 1.45 [15]: 0.07% | Total [15]: 1.00% | RRT 0.74 Epimer [16]: 0.24% | RRT 1.64 Mino [16]: 0.10% | RRT 1.85 MW = 597 [16]: 0.11% | Total [16]: 1.17% | RRT 0.58 [17]: 0.08% | RRT 0.74 Epimer [17]: 0.28% | RRT 1.45 [17]: 0.05% | RRT 1.64 Mino [17]: 0.11% | RRT 1.85 MW = 597 [17]: 0.10% | Total [17]: 1.76% | RRT 0.12 MW = 633 [18]: BRL (BRL means below reporting limit (meaning less than 0.05% of tigecycline peak)) | RRT 0.23 MW = 572 [18]: BRL (BRL means below reporting limit (meaning less than 0.05% of tigecycline peak)) | RRT 0.50 MW = 601 [18]: BRL (BRL means below reporting limit (meaning less than 0.05% of tigecycline peak)) | RRT 0.55 MW = 583 [18]: BRL (BRL means below reporting limit (meaning less than 0.05% of tigecycline peak)) | RRT 0.64 9-Amino [18]: BRL (BRL means below reporting limit (meaning less than 0.05% of tigecycline peak)) | RRT 0.78 MW = 557 [18]: BRL (BRL means below reporting limit (meaning less than 0.05% of tigecycline peak)) | RRT 1.12 [18]: BRL (BRL means below reporting limit (meaning less than 0.05% of tigecycline peak)) | RRT 1.58 [18]: BRL (BRL means below reporting limit (meaning less than 0.05% of tigecycline peak)) | RRT 1.67 MW = 556 [18]: BRL (BRL means below reporting limit (meaning less than 0.05% of tigecycline peak)) | RRT 0.74 Epimer [19]: 0.16% | RRT 1.64 Mino [19]: 0.12% | Strength [19]: 19.187 mg/mL | Total [19]: 0.51% | RRT 0.74 Epimer [20]: 0.18% | RRT 1.64 Mino [20]: 0.13% | Strength [20]: 19.324 mg/mL | Total [20]: 0.61% | RRT 0.58 [21]: 0.07% | Strength [21]: 19.127 mg/mL | Total [21]: 0.63% | RRT 0.74 Epimer [22]: 0.19% | RRT 1.64 Mino [22]: 0.15% | RRT 1.85 MW = 597 [22]: 0.10% | Strength [22]: 20.357 mg/mL | Total [22]: 0.59% | RRT 0.58 [23]: 0.08% | RRT 0.74 Epimer [23]: 0.22% | RRT 1.45 [23]: 0.09% | RRT 1.64 Mino [23]: 0.10% | RRT 1.85 MW = 597 [23]: 0.09% | Strength [23]: 19.956 mg/mL | Total [23]: 0.56%
